From patent publication US6436987B1, “Crystalline forms of (3S-trans)-2-[3,4-dihydro-4-hydroxy-3-(phenylmethyl)-2H-1-benzopyran-7-yl]-4-(trifluoromethyl)-benzoic acid” (Pfizer Inc., priority 2000, dated 2002)
Converted amounts (≈) assume the structure as drawn. Structures can show the parent of a compound that is named as a salt.

Key:
Type in all cases: physicochemical
[1] = equilibrium solubility determined during polymorph screen; conditions: thermodynamic from solid; pH 7 water, four days at ambient temperature
Experimental: Using the microscopy methods described by Haleblaine and McCrone, Journal of Pharmaceutical Sciences, 58(8), pp. 911-929, 1969, a polymorph screen was conducted for the ethylene diamine (mono) salt of compound (I). No polymorphs were observed. A more extensive polymorph screen was run on the (mono) salt of compound (I′), involving 31 isolations, and again no polymorphs were observed. During the polymorph screen, an equilibrium solubility for the ethylene diamine (mono) salt of compound (I) was determined. After maintaining a sample for four days at ambient temperature, an equilibrium solubility value of approximately 4 mg/ml was determined, in pH 7 water. Additionally, the ethylene diamine (bis) salt was not observed in these studies.

[2] = comparison of forms: solubility in aqueous solvents; conditions: polymorph B versus polymorph A; salt versus all other known forms
[3] = hygroscopicity: weight gain at 87% RH; conditions: for weight gain (hygroscopicity): after 72 hours at 87% RH
Experimental: Polymorph A has an X-ray powder diffraction pattern that is unique to the form as previously described (FIG. 1). Upon microscopic examination, crystals appear as small needles and aggregates thereof, but which are not reliably distinguished from those of polymorph B (FIG. 2). By fusion microscopy, polymorph A is determined to commence melting at about 144° C., with no recrystallization noted upon further temperature increases. […] (FIG. 5).

[4] = equilibration of forms under ambient conditions (relative energy)
Text: As evaluated by equilibration of the polymorphs (A and B) under ambient conditions, polyporph A is the lower energy form.

[5] = comparison of forms: thermal stability
[6] = solid-state storage stability in sealed dark glass bottle under nitrogen; conditions: sealed dark colored glass bottle, under nitrogen gas
Text: However, polymorph B may be stably stored in solid form. If placed in a sealed dark colored glass bottle, under nitrogen gas, polymorph B crystals are stable for at least 6 weeks.
(§1) Examples of suitable solvent include ethyl acetate: hexanes 1:5.

[7] = conversion (bridging) to polymorph A in solvent
Experimental: Polymorph B crystals may also be converted back to polymorph A crystals by placement in a solvent in which the B form is very slightly soluble, such as n-hexanes. Over a period of time (for example, no more than 18 hours) crystals of polymorph A will develop. Prolonged granulation (for example 18 hours) even when conducted at 5° C. will also effect conversion to polymorph A.
as §1

[8] = salt screen for suitable crystalline properties; conditions: salt of compound (I′)
Experimental: Again using compound (I′), the following salt species were prepared and screened for the presence of suitable crystalline properties. […] The olamine salt was recovered as an oil. The meglumine salt material was determined to be amorphous. Both the benzathine (mono) and benzathine (bis) salts were also determined to be amorphous. Crystalline solids could also not be prepared for the L-arginine, L-lysine, calcium, potassium, and magnesium salts.

O=C(O)c1ccc(C(F)(F)F)cc1-c1ccc2c(c1)OC[C@H](Cc1ccccc1)[C@H]2O [(3S-trans)-2-[3,4-dihydro-4-hydroxy-3-(phenylmethyl)-2H-1-benzopyran-7-yl]-4-(trifluoromethyl)-benzoic acid]
solubility thermodynamic at 4 days [1]: ~4000 µg/mL (≈ 9.34 mM)
solubility in aqueous solvents relative to other forms [2]: greater solubility in aqeuous solvents

O=C(O)c1ccc(C(F)(F)F)cc1-c1ccc2c(c1)OC[C@H](Cc1ccccc1)[C@H]2O [Polymorph A, (3S-trans)-2-[3,4-dihydro-4-hydroxy-3-(phenylmethyl)-2H-1-benzopyran-7-yl]-4-(trifluoromethyl)-benzoic acid]
hygroscopicity in words ([3]; 87% RH, ambient temperature): substantially non-hygroscopic
weight gain (hygroscopicity) ([3]; again at ambient temperature (second value stated)): 0.36%
weight gain (hygroscopicity) ([3]; ambient temperature (first value stated)): 0.2%
relative energy of the crystal form [4]: lowest energy form
thermal stability relative to all other known forms of compound (I) [5]: greater thermal stability

O=C(O)c1ccc(C(F)(F)F)cc1-c1ccc2c(c1)OC[C@H](Cc1ccccc1)[C@H]2O [monohydrate, (3S-trans)-2-[3,4-dihydro-4-hydroxy-3-(phenylmethyl)-2H-1-benzopyran-7-yl]-4-(trifluoromethyl)-benzoic acid]
time stable in solid form [6]: at least six weeks
bridging to polymorph A ([7]; hexanes alone): no bridging occurs
bridging to polymorph A ([7]; solvents with some minimal solubility, e.g. ethyl acetate: hexanes 1:5): readily bridges to polymorph A
relative energy of the crystal form [4]: higher in energy than polymorph A

O=C(O)c1ccc(C(F)(F)F)cc1-c1ccc2c(c1)OC[C@H](Cc1ccccc1)[C@H]2O [polymorph B, (3S-trans)-2-[3,4-dihydro-4-hydroxy-3-(phenylmethyl)-2H-1-benzopyran-7-yl]-4-(trifluoromethyl)-benzoic acid]
time stable in solid form [6]: at least 6 weeks
time for conversion to polymorph A ([7]; in a solvent in which the B form is very slightly soluble, such as n-hexanes): no more than 18 hours
solubility in aqueous solvents relative to other forms [2]: greater solubility in aqeuous solvents

O=C(O)c1ccc(C(F)(F)F)cc1-c1ccc2c(c1)OC[C@@H](Cc1ccccc1)[C@@H]2O [sodium salt, (3R-trans)-2-[3,4-dihydro-4-hydroxy-3-(phenylmethyl)-2H-1-benzopyran-7-yl]-4-(trifluoromethyl)-benzioc acid]
hygroscopicity of salt [8]: hygroscopic, becoming an oil
